Experiments:
glod-4 animals = assay: LC-MS/MS estimation of a-DC levels (MGO, GO) in worms; assay type: in vivo, Caenorhabditis elegans; settings: for Levels of GO / Levels of MGO: glod-4, PA; for Levels of GO: LA, or UMP (20 pM each) vs EtOH control; for Levels of MGO: LA, or UMP (20 pM) vs EtOH control
Procedure: Worms were cultured on NGM agar plates as explained before for lifespan experiments with some modifications: ˜100 animals/60 mm plates were used for each experimental replicate and animals were harvested at day 4 of adulthood with 20 pL M9 buffer in 1.5 mL eppendorf tubes. Worm suspensions were flash-frozen over liquid nitrogen and subsequently homogenized ultrasonically using a Fisher Scientific's 550 Sonic Dismembrator with 80 pL of sodium formate buffer (pH=3) containing 75 pM of 2,3-hexanedione (internal standard, IS). Two 20 s pulses at amplitude setting 4 of the instrument (on ice) were sufficient to completely homogenize worm bodies. To each homogenate tube 20 pL of 100 mg/mL o-phenelynediamine (OPD) solution in sodium formate buffer (pH=3) were added, and the mixture was allowed to react in dark at room temperature for ˜22 h. The long reaction time and the pH are critical parameters in this protocol: first to ensure complete derivatization of a-DCs bound reversibly to protein/glutathione —SHs; and second to prevent in vitro a-DC generation from glycolytic intermediates (DHAP, GAP, etc.) or due to DNA breakdown (Chaplen et al. (1998) Proc. Natl. Acad. Sci. USA, 95: 5533-5538). At the end of the stipulated reaction window, 12 pL of 5 M perchloric acid was added to each tube and incubated on ice for 30 min to ensure complete protein precipitation. Subsequently, the tubes were centrifuged at 10,000 rpm for 10 min, and the supernatant collected and neutralized with 30 pL 4 M NH4OH solution.
Optimization of analyte-specific MRM transitions, such as determination of suitable precursor and product ions and optimal MS parameters for each transition (Q1, precursor→Q3, product) were achieved by isocratic flow injection of the 10 pM solution (final) for each standard- or IS-OPD derivatives. The most intense (Q1→Q3) transition was used as quantifier, whereas the next best transition was used as qualifier for each compound (Table 4). For LC separation, a solvent gradient of 0.1% acetic acid in water (aqueous) - methanol (organic) was used with 0.4 mL/min flow rate, starting with an […] content of 3% for 0.7 min, which was increased to 100% over 6 min and held at 100% for 1.5 min. The LC column was subsequently reconstituted to its initial condition (methanol content of 3%) over the next 0.5 min and re-equilibrated for 3 min.
Derivatized metabolome extracts, as well as synthetic a-DCs were analyzed by scheduled LC-MRM in positive ion mode. To develop the scheduled LC-MRM method, MS/MS data was collected for all transitions across the length of each LC run for a mixture of synthetic GO-, MGO-, 3DG-, and 2,3-hexanedione (IS)-OPD derivatives (1 pL injection of 1 pM final concentration). Source conditions were as follows: curtain gas (CUR) 20, nebulizer gas (GS1) 60, auxiliary gas (GS2) 50, ionspray voltage (IS) 4500 V, and source temperature (TEM) 450° C. This step was undertaken to ascertain the LC retention times (RT) for the OPD derivatives. Several such sets were acquired to compute analyte-specific variability in RTs. Next, the MS was switched to operate in scheduled MRM mode, whereby the mass spectrometer acquired data for specific MRM transitions ±45 s around the computed RT for the analyte (Table 4). Relative quantification of GO, MGO, and 3DG were based on integration of corresponding OPD derivative-specific quantifier peaks obtained from scheduled LC-MRM runs (peak areas) and adjusted to the number of animals. To account for OPD derivatization efficiencies in individual tubes, sample-to-sample variability in MS response, and differential sample dilutions (both for synthetic a-DCs as well as a-DCs in worm homogenates), the peak areas were normalized to the quantifier peak area for IS-OPD for each sample.

C. elegans [1] = assay: Neuronal damage assay, pan-neuronal GFP reporter (unc-33p::gfp); assay type: in vivo, Caenorhabditis elegans
Procedure: Animals were paralyzed using freshly prepared 5 mM levamisole in M9 buffer and mounted on 2% agar pads under glass coverslips. […] Images were acquired under 40× objective. Neuronal deterioration was examined and characterized by loss of fluorescent intensity of nerve ring, neuronal waviness, and thinning and fragmentation of axons and neuronal commissures. Quantification and imaging of animals harboring damage was performed using the Image J™ software (//imagei.nih.gov/ii/).

C. elegans [2] = assay: Touch assay (touch index, gentle touch)
Procedure: For feeding RNAi bacteria, synchronized L1 larvae were transferred to NGM plates containing 1 mM of isopropyl P-D-1- thiogalactopyranoside/IPTG (referred to as RNAi plates) seeded with 20× concentrated HT1115 bacteria (cultured overnight at 20° C. at 220 rpm), carrying desired plasmid for RNAi of a specific gene or bacteria carrying empty vector pL4440 as control and allowed to grow on plates for 48 h. For drug assays, synchronized L4 larvae were transferred to either 60 mm NGM plates (with or without IPTG), freshly seeded with 5×E. coli OP50-1 or 20× HT1115 RNAi bacteria. Before seeding, the desired drug (or vehicle control) was mixed with the bacteria. Final drug concentrations were calculated considering the total volume of media and bacteria seeded on the NGM plates.
Briefly, each animal was touched alternately in the head region and in the tail with an eyelash. Typically, an omega turn or diversion in head direction resulting from anterior touch was counted as a positive response. Posterior touch response (not counted towards positive response) functioned towards resetting of the response to anterior touch. Touch index (TI) scores were generated by dividing the total number of positive responses over the […] per animal.
Synchronized glod-4 L1 animals were cultured on NGM agar plates seeded with E. coli OP50-1 until L4. […] Post-transfer into wells, animals were fed OP50-1 bacteria ad libitum while incubating at 20° C. on a rocker for 12 h. DMSO was used as control. Post-incubation with drug or DMSO, animals were transferred from wells onto NGM agar plates seeded with OP50-1 bacteria. Touch assay was performed on individual animal and touch index (TI) was calculated for each compound from the library as mentioned earlier.

| SMILES | Levels of GO (glod-4 animals) | Levels of MGO (glod-4 animals) | Neuronal damage (C. elegans [1]; unc-33p::gfp on glod-4 RNAi, day 10 of adulthood, PA (20 pM) vs EtOH control) | Touch sensitivity (touch index), lack of touch sensitivity (C. elegans [2]; glod-4, day 8 of adulthood, PA (20 pM) vs EtOH control) | Touch sensitivity (touch index), hyperesthesia (C. elegans [2]; glod-4, young adult stage, PA (20 pM) vs EtOH control) | Levels of MGO under trpa-1 knockdown (glod-4 animals; glod-4 on trpa-1 RNAi, PA vs EtOH control) | Neuronal damage (C. elegans [1]; unc-33p::gfp, day 4 of adulthood, 7 mM MGO vs water) | Touch sensitivity (touch index) (C. elegans [2]; N2 animals, young adult stage, 7 mM MGO vs water) |
| --- | --- | --- | --- | --- | --- | --- | --- | --- |
| O=C(O)CCCCC1CCSS1 (stereo not shown) [LA, a-lipoic acid] | almost wild-type-like levels | almost wild-type-like levels | – | – | – | – | – | – |
| C[C@]1(C(=O)O)CCC[C@]2(C)c3cc(O)ccc3CC[C@@H]12 [PA, podocarpic acid] | almost wild-type-like levels | almost wild-type-like levels | prevent the prominent neuronal damages | lack of touch sensitivity to wild-type levels | revert the hyperesthesia | no effect | – | – |
| CC(=O)C=O [MGO, methylglyoxal] | – | – | – | – | – | – | neuronal damage | hyperesthesia |
